Measured values taken from patent US9512425B2, “Inhibiting migration of cancer cells” (Cornell University, priority 2012, dated 2016).

Columns and labels:
p-FAK (S910) = experiment: Western blot and immunostaining of p-FAK; type: cell-based, human
Procedure: (§1) Cells were homogenized in 1×RIPA lysis buffer (Millipore) containing protease inhibitors (Roche Applied Science) and 1× phosphatase inhibitor (Thermo Scientific). Samples were boiled in 1× NuPAGE LDS sampling buffer (Invitrogen), and loaded onto 4-20% gradient Tris-HCl gels (BioRad). Western blotting was performed using antibodies specific for NNAT (Cat#AB27266, Abcam), EPDR1 (Cat# SC81820, Santa Cruz), SSRP1 (Cat#SC56782, Santa Cruz), HOXB3 (Cat# SC17161, Santa Cruz), HNRNPK (Cat# SC28380, Santa Cruz), CNTFR, Phospho-p44/42 MAPK (Erk1/2, Cat #4370, Cell Signaling), p44/42 MAPK (Erk1/2, Cat #4695, Cell Signaling), VINCULIN (Cat#V9131, Sigma-Aldrich), and β-ACTIN (Sigma-Aldrich).
For immunofluorescence staining, cells were fixed overnight in paraformaldehyde before incubation with primary antibodies; mouse-monoclonal VINCULIN (Cat#V9131, Sigma-Aldrich, 1:400) and rabbit-polyclonal phosphorylated FAK (pS910, Cat #44596G, Invitrogen, 1:1000). Alexa Flour 568 or Alexa Fluor 647 anti-mouse IgG, and Alexa Fluor 647 anti-rabbit IgG (Invitrogen), were used for visualization. Following incubation with secondary antibodies the tissue sections were treated with Rhodamine Phalloidin (Cat# R415, Invitrogen). […] Images were analyzed using Axiovision 4.6 software (Carl Zeiss Inc.).

NNAT protein = experiment: Western blot of NNAT; type: cell-based, human
Procedure: as §1

Nnat 3'-UTR = experiment: 3'-UTR dual luciferase assay; type: cell-based, human
Procedure: The 3′-UTR of a gene of interest was amplified by PCR and cloned into a pmirGLO Dual-Luciferase miRNA Target Expression Vector (Promega). To express miRNA, synthetic premiRNA precursor for miR-708 and control scrambled miRNA were purchased from Applied Biosystems (Ambion). The miRNA precursor and pmirGLO Dual-Luciferase 3′-UTR vector were co-transfected into […] cells using the siPORT NeoFX Transfection Agent following manufacturer's instructions (Ambion). Cells were harvested and lysed at 48 hr post-transfection. The interaction between miR-708 and target 3′-UTR was measured by Dual-luciferase assay system (Promega).

Akt2 = Akt2 suppression in breast cancer cells (data not shown); type: cell-based
MDA cells = experiment: Cell proliferation assay (EdU); type: cell-based, human; conditions: MDA cells transformed with miR-708 lentiviral expression system
Procedure: For cell proliferation assays, 1×10^6 MDA cells were cultured separately in suspension in non-adhesive 6-well dishes (Corning Inc) for 2 days. EdU ([…]) was administrated to culture medium for 30 min to label proliferating cells. Cells were harvested, washed once with PBS, and fixed with 4% paraformaldehyde for 15 min at room temperature. Fixed cells were permeabilized and stained for EdU incorporation and DNA contains with the Click-iT® EdU Cell Proliferation Assay kit (Invitrogen Inc) according to the standard protocol. Flow analyses of cell phases were performed using an LSRII coupled with Diva software (BD Bioscience).

Nnat = Nnat expression in MDA-MB-436 cells overexpressing miR-708; type: cell-based, human; conditions: MDA-MB-436 cells expressing miR-708
Procedure: Total RNA was extracted using the RNeasy kit (Qiagen) and converted to cDNA using Superscript II reverse transcriptase (Invitrogen). QPCR primers for Nnat were purchased from SABiosciences (Cat #PPT11378, SABiosciences), and quantitative PCR performed using iQ™ SYBER Green master mix (Biorad, Hercule, Calif.). Each sample was run in triplicate to minimize pipetting error. A standard protocol of initial denaturation at 95° C. for 3 min, 40 cycles of 95° C. for 20 sec, 60° C. for 30 sec, and 72° C. for 30 sec, followed by final extension at 72° C. for 5 min and melt curve analysis was applied on a Biorad CFX96 Real Time System (BioRad) coupled with Bio-Rad-CFX Manager software. The relative abundance of each transcript was compared with the control.

p-ERK (T202) = experiment: Western blot of p-ERK after ATP stimulation; type: cell-based, human; conditions: MDA-miR-708 vs MDA cells after ATP
Procedure: as §1

Question: Which results are given for “miR-708: microRNA, mature sequence 5'-AAGGAGCUUACAAUCUAGCUGGG-3' (SEQ ID NO: 2); expressed from lentiviral vector or used as synthetic precursor”?
Answer: p-FAK levels following ATP-mediated Ca^2+ release (p-FAK (S910); Western blot, MDA-miR-708 vs MDA cells): increased in MDA and not in MDA-miR-708 cells; p-FAK at vinculin+ focal adhesions (p-FAK (S910); immunostaining, MDA-miR-708 cells): devoid of p-FAK; expression of NNAT protein (NNAT protein; MDA-708 vs MDA control cells, constitutive expression): significantly decreased; Nnat levels (NNAT protein; doxycycline-mediated conditional expression of miR-708): significant reduction; NNAT expression from Nnat cDNA (NNAT protein; mutant 3'-UTR (Nnat-mut), synthetic miR-708): abolished miR-708-mediated suppression; NNAT expression from Nnat cDNA (NNAT protein; wild type UTR, synthetic miR-708 vs scrambled): suppressed expression; repression of 3'-UTR luciferase reporter (Nnat 3'-UTR; 293T cells, Renilla/Firefly ratio): significant repression; repression of wild type UTR (Nnat-UTR) reporter (Nnat 3'-UTR; synthetic miR-708 vs scrambled miRNA, intact UTR): effectively suppressed; repression of mutant UTR (Nnat-UTR-mut) reporter (Nnat 3'-UTR; synthetic miR-708 vs scrambled miRNA, mutated binding site): refractory to suppression; Akt2 suppression (Akt2): not suppressed; cell proliferation (MDA cells): No significant change; Nnat levels (Nnat): decreased levels of Nnat; activated Erk (p-Erk) levels (p-ERK (T202)): reduced levels
